Reference: patent US20250230193A1, “CYCLIC COMPOUND HAVING SELECTIVE KRAS INHIBITORY EFFECT ON HRAS AND NRAS” (CHUGAI SEIYAKU KABUSHIKI KAISHA, priority 2022, published 2025)
*1 amine or outer side, *2 acyl side, *3 side chain or, on linkers, in order; H or OH if unused. Where a SMILES comes first, the peptide text is derived from it. Bridges are numbered along the chain shown (N, C = ends). [ ]: non-standard residue; d: D form. The star is where a group is joined. hPhe(3-Cl-4-CF3) = N[C@@H](CCc1ccc(C(F)(F)F)c(Cl)c1)C(=O)O; NPrPhe(4-CF3) = CCCN[C@@H](Cc1ccc(C(F)(F)F)cc1)C(=O)O; Pro(4-spirocPr) = O=C(O)[C@@H]1CC2(CC2)CN1; Abu(4,4,4-F3) = N[C@@H](CC(F)(F)F)C(=O)O; NMeGly(cPent) = CN[C@H](C(=O)O)C1CCCC1; X46 = CC1(C)CN([*:1])[C@@H]1C(=O)[*:2]; Gly(cPent) = N[C@H](C(=O)O)C1CCCC1; Hyp = O=C(O)[C@@H]1C[C@@H](O)CN1; Gly(cBu) = N[C@H](C(=O)O)C1CCC1; NMeD = CN[C@@H](CC(=O)O)C(=O)O; NMeL = CN[C@@H](CC(C)C)C(=O)O; X14 = N#CCN(CC(=O)[*:2])[*:1]; Morpholide = C1CN(*)CCO1; NMeA = CN[C@@H](C)C(=O)O; Ac5c = NC1(C(=O)O)CCCC1; Aze = O=C(O)[C@@H]1CCN1; NcPrGly = O=C(O)CNC1CC1; Abu = CC[C@H](N)C(=O)O; NPrGly = CCCNCC(=O)O; Sar = CNCC(=O)O

Tests used:
[1] = target: GDP-bound NRAS wild-type protein (Homo sapiens, UniProt P01111); assay: Binding to NRAS by surface plasmon resonance (SPR), Single Cycle Kinetics; conditions: KD ratio NRAS/KRAS, SPR
[2] = target: GDP-bound HRAS wild-type protein (Homo sapiens, UniProt P01112); assay: Binding to HRAS by surface plasmon resonance (SPR), Single Cycle Kinetics; conditions: KD ratio HRAS/KRAS, SPR
Sequence of GDP-bound HRAS wild-type protein (P01112 whole entry): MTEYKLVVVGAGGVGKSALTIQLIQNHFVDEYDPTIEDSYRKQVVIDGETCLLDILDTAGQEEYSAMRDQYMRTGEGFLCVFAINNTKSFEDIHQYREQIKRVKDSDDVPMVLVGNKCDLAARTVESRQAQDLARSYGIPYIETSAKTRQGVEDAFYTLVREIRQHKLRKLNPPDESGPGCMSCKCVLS

Sequence of GDP-bound NRAS wild-type protein (P01111 whole entry): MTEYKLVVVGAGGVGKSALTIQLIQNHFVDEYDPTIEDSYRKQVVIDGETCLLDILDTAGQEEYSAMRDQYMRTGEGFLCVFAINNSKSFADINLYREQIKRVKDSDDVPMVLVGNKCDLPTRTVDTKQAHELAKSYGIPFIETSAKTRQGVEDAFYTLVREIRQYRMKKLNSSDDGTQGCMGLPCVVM

Compound	NRAS/KRAS (ratio of KD for GDP-bound NRAS wild-type to KD for KRAS) [1]	HRAS/KRAS (ratio of KD for GDP-bound HRAS wild-type to KD for KRAS) [2]
CCCN1CC(=O)NC2(CCCC2)C(=O)N(C)[C@@H](C2CCCC2)C(=O)N(C)[C@H](C(=O)N2CCOCC2)CC(=O)N(C)[C@@H](CC(C)C)C(=O)N[C@@H]([C@@H](C)CC)C(=O)N(C)CC(=O)N(C)CC(=O)N(CCC)[C@@H](Cc2ccc(C(F)(F)F)cc2)C(=O)N(C)CC(=O)N[C@@H](CCc2ccc(C(F)(F)F)c(Cl)c2)C1=O [PP0267] ([NMeL]I[Sar][Sar][NPrPhe(4-CF3)][Sar][hPhe(3-Cl-4-CF3)][NPrGly][Ac5c][NMeGly(cPent)][NMeD]-Morpholide; lactam N-11)	B (a compound having 3 or more and less than 10 is denoted as B)	B (a compound having 3 or more and less than 10 is denoted as B)
CCCN1C(=O)[C@@H]2CCN2C(=O)[C@H](C)N(C)C(=O)[C@H](CC)NC(=O)[C@H](CC(C)C)N(C)C(=O)C[C@@H](C(=O)N2CCOCC2)N(C)C(=O)[C@H](C2CCCC2)N(C)C(=O)C2(CCCC2)NC(=O)[C@@H]2CCCN2C(=O)[C@H](CCc2ccc(C(F)(F)F)c(Cl)c2)NC(=O)CN(C)C(=O)[C@@H]1Cc1ccc(C(F)(F)F)cc1 [PP0269] ([NMeL][Abu][NMeA][Aze][NPrPhe(4-CF3)][Sar][hPhe(3-Cl-4-CF3)]P[Ac5c][NMeGly(cPent)][NMeD]-Morpholide; lactam N-11)	C (A compound having a KD ratio of 0.1 or more and less than 3 is denoted as C)	B (a compound having 3 or more and less than 10 is denoted as B)
CCCN1C(=O)[C@@H]2CCN2C(=O)[C@H](C)N(C)C(=O)[C@H](CC(F)(F)F)NC(=O)[C@H](CC(C)C)N(C)C(=O)C[C@@H](C(=O)N2CCOCC2)N(C)C(=O)[C@H](C2CCCC2)N(C)C(=O)C2(CCCC2)NC(=O)[C@@H]2CCCN2C(=O)[C@H](CCc2ccc(C(F)(F)F)c(Cl)c2)NC(=O)CN(C)C(=O)[C@@H]1Cc1ccc(C(F)(F)F)cc1 [PP0270] ([NMeL][Abu(4,4,4-F3)][NMeA][Aze][NPrPhe(4-CF3)][Sar][hPhe(3-Cl-4-CF3)]P[Ac5c][NMeGly(cPent)][NMeD]-Morpholide; lactam N-11)	C (A compound having a KD ratio of 0.1 or more and less than 3 is denoted as C)	B (a compound having 3 or more and less than 10 is denoted as B)
CCCN1C(=O)[C@@H]2CCN2C(=O)[C@H](C)N(C)C(=O)[C@H](C2CCC2)NC(=O)[C@H](CC(C)C)N(C)C(=O)C[C@@H](C(=O)N2CCOCC2)N(C)C(=O)[C@H](C2CCCC2)N(C)C(=O)C2(CCCC2)NC(=O)[C@@H]2CCCN2C(=O)[C@H](CCc2ccc(C(F)(F)F)c(Cl)c2)NC(=O)CN(C)C(=O)[C@@H]1Cc1ccc(C(F)(F)F)cc1 [PP0271] ([NMeL][Gly(cBu)][NMeA][Aze][NPrPhe(4-CF3)][Sar][hPhe(3-Cl-4-CF3)]P[Ac5c][NMeGly(cPent)][NMeD]-Morpholide; lactam N-11)	C (A compound having a KD ratio of 0.1 or more and less than 3 is denoted as C)	B (a compound having 3 or more and less than 10 is denoted as B)
CCCN1C(=O)[C@@H]2CCN2C(=O)[C@H](C)N(C)C(=O)[C@H](C2CCCC2)NC(=O)[C@H](CC(C)C)N(C)C(=O)C[C@@H](C(=O)N2CCOCC2)N(C)C(=O)[C@H](C2CCCC2)N(C)C(=O)C2(CCCC2)NC(=O)[C@@H]2CCCN2C(=O)[C@H](CCc2ccc(C(F)(F)F)c(Cl)c2)NC(=O)CN(C)C(=O)[C@@H]1Cc1ccc(C(F)(F)F)cc1 [PP0272] ([NMeL][Gly(cPent)][NMeA][Aze][NPrPhe(4-CF3)][Sar][hPhe(3-Cl-4-CF3)]P[Ac5c][NMeGly(cPent)][NMeD]-Morpholide; lactam N-11)	C (A compound having a KD ratio of 0.1 or more and less than 3 is denoted as C)	B (a compound having 3 or more and less than 10 is denoted as B)
CCCN1C(=O)[C@@H]2CCN2C(=O)CN(C2CC2)C(=O)[C@H]([C@@H](C)CC)NC(=O)[C@H](CC(C)C)N(C)C(=O)C[C@@H](C(=O)N2CCOCC2)N(C)C(=O)[C@H](C2CCCC2)N(C)C(=O)C2(CCCC2)NC(=O)[C@@H]2CCCN2C(=O)[C@H](CCc2ccc(C(F)(F)F)c(Cl)c2)NC(=O)CN(C)C(=O)[C@@H]1Cc1ccc(C(F)(F)F)cc1 [PP0273] ([NMeL]I[NcPrGly][Aze][NPrPhe(4-CF3)][Sar][hPhe(3-Cl-4-CF3)]P[Ac5c][NMeGly(cPent)][NMeD]-Morpholide; lactam N-11)	C (A compound having a KD ratio of 0.1 or more and less than 3 is denoted as C)	B (a compound having 3 or more and less than 10 is denoted as B)
CCCN1CC(=O)N2CC[C@H]2C(=O)N(CCC)[C@@H](Cc2ccc(C(F)(F)F)cc2)C(=O)N(C)CC(=O)N[C@@H](CCc2ccc(C(F)(F)F)c(Cl)c2)C(=O)N2CCC[C@H]2C(=O)NC2(CCCC2)C(=O)N(C)[C@@H](C2CCCC2)C(=O)N(C)[C@H](C(=O)N2CCOCC2)CC(=O)N(C)[C@@H](CC(C)C)C(=O)N[C@@H]([C@@H](C)CC)C1=O [PP0274] ([NMeL]I[NPrGly][Aze][NPrPhe(4-CF3)][Sar][hPhe(3-Cl-4-CF3)]P[Ac5c][NMeGly(cPent)][NMeD]-Morpholide; lactam N-11)	C (A compound having a KD ratio of 0.1 or more and less than 3 is denoted as C)	B (a compound having 3 or more and less than 10 is denoted as B)
CCCN1C(=O)[C@@H]2CCN2C(=O)CN(CC#N)C(=O)[C@H]([C@@H](C)CC)NC(=O)[C@H](CC(C)C)N(C)C(=O)C[C@@H](C(=O)N2CCOCC2)N(C)C(=O)[C@H](C2CCCC2)N(C)C(=O)C2(CCCC2)NC(=O)[C@@H]2CCCN2C(=O)[C@H](CCc2ccc(C(F)(F)F)c(Cl)c2)NC(=O)CN(C)C(=O)[C@@H]1Cc1ccc(C(F)(F)F)cc1 [PP0275] ([NMeL]I[X14][Aze][NPrPhe(4-CF3)][Sar][hPhe(3-Cl-4-CF3)]P[Ac5c][NMeGly(cPent)][NMeD]-Morpholide; lactam N-11)	C (A compound having a KD ratio of 0.1 or more and less than 3 is denoted as C)	C (A compound having a KD ratio of 0.1 or more and less than 3 is denoted as C)
CCCN1C(=O)[C@@H]2CCN2C(=O)[C@H]2N(CC2(C)C)C(=O)[C@H]([C@@H](C)CC)NC(=O)[C@H](CC(C)C)N(C)C(=O)C[C@@H](C(=O)N2CCOCC2)N(C)C(=O)[C@H](C2CCCC2)N(C)C(=O)C2(CCCC2)NC(=O)[C@@H]2CCCN2C(=O)[C@H](CCc2ccc(C(F)(F)F)c(Cl)c2)NC(=O)CN(C)C(=O)[C@@H]1Cc1ccc(C(F)(F)F)cc1 [PP0277] ([NMeL]I[X46][Aze][NPrPhe(4-CF3)][Sar][hPhe(3-Cl-4-CF3)]P[Ac5c][NMeGly(cPent)][NMeD]-Morpholide; lactam N-11)	C (A compound having a KD ratio of 0.1 or more and less than 3 is denoted as C)	C (A compound having a KD ratio of 0.1 or more and less than 3 is denoted as C)
CCCN1C(=O)[C@@H]2CCN2C(=O)[C@H](C)N(C)C(=O)[C@H]([C@@H](C)CC)NC(=O)[C@H](CC(C)C)N(C)C(=O)C[C@@H](C(=O)N2CCOCC2)N(C)C(=O)[C@H](C2CCCC2)N(C)C(=O)C2(CCCC2)NC(=O)[C@@H]2CCN2C(=O)[C@H](CCc2ccc(C(F)(F)F)c(Cl)c2)NC(=O)CN(C)C(=O)[C@@H]1Cc1ccc(C(F)(F)F)cc1 [PP0281] ([NMeL]I[NMeA][Aze][NPrPhe(4-CF3)][Sar][hPhe(3-Cl-4-CF3)][Aze][Ac5c][NMeGly(cPent)][NMeD]-Morpholide; lactam N-11)	C (A compound having a KD ratio of 0.1 or more and less than 3 is denoted as C)	C (A compound having a KD ratio of 0.1 or more and less than 3 is denoted as C)
CCCN1C(=O)[C@@H]2CCN2C(=O)[C@H](C)N(C)C(=O)[C@H]([C@@H](C)CC)NC(=O)[C@H](CC(C)C)N(C)C(=O)C[C@@H](C(=O)N2CCOCC2)N(C)C(=O)[C@H](C2CCCC2)N(C)C(=O)C2(CCCC2)NC(=O)[C@@H]2CC3(CC3)CN2C(=O)[C@H](CCc2ccc(C(F)(F)F)c(Cl)c2)NC(=O)CN(C)C(=O)[C@@H]1Cc1ccc(C(F)(F)F)cc1 [PP0282] ([NMeL]I[NMeA][Aze][NPrPhe(4-CF3)][Sar][hPhe(3-Cl-4-CF3)][Pro(4-spirocPr)][Ac5c][NMeGly(cPent)][NMeD]-Morpholide; lactam N-11)	C (A compound having a KD ratio of 0.1 or more and less than 3 is denoted as C)	C (A compound having a KD ratio of 0.1 or more and less than 3 is denoted as C)
CCCN1C(=O)[C@@H]2CCN2C(=O)[C@H](C)N(C)C(=O)[C@H]([C@@H](C)CC)NC(=O)[C@H](CC(C)C)N(C)C(=O)C[C@@H](C(=O)N2CCOCC2)N(C)C(=O)[C@H](C2CCCC2)N(C)C(=O)C2(CCCC2)NC(=O)[C@@H]2C[C@@H](OC)CN2C(=O)[C@H](CCc2ccc(C(F)(F)F)c(Cl)c2)NC(=O)CN(C)C(=O)[C@@H]1Cc1ccc(C(F)(F)F)cc1 [PP0283] ([NMeL]I[NMeA][Aze][NPrPhe(4-CF3)][Sar][hPhe(3-Cl-4-CF3)][Hyp](Me)[Ac5c][NMeGly(cPent)][NMeD]-Morpholide; lactam N-11)	C (A compound having a KD ratio of 0.1 or more and less than 3 is denoted as C)	C (A compound having a KD ratio of 0.1 or more and less than 3 is denoted as C)
